Experimental findings from patent US9403798B2, “Triazinone compound and T-type calcium channel inhibitor” (NISSAN CHEMICAL INDUSTRIES, LTD., priority 2012, dated 2016) are described below.

For orientation: pIC50 means −log10 of the IC50, conventionally taken in molar units.

pIC50: −log10 of the molar value.

In the assay the target is T1, Human T-type calcium channel (Cav 3.2) (Homo sapiens, UniProt O95180).
T1 construct: Edward Perez-Reyes, University of Virginia, USA; host or cells: HEK293
T1 sequence (O95180 whole entry): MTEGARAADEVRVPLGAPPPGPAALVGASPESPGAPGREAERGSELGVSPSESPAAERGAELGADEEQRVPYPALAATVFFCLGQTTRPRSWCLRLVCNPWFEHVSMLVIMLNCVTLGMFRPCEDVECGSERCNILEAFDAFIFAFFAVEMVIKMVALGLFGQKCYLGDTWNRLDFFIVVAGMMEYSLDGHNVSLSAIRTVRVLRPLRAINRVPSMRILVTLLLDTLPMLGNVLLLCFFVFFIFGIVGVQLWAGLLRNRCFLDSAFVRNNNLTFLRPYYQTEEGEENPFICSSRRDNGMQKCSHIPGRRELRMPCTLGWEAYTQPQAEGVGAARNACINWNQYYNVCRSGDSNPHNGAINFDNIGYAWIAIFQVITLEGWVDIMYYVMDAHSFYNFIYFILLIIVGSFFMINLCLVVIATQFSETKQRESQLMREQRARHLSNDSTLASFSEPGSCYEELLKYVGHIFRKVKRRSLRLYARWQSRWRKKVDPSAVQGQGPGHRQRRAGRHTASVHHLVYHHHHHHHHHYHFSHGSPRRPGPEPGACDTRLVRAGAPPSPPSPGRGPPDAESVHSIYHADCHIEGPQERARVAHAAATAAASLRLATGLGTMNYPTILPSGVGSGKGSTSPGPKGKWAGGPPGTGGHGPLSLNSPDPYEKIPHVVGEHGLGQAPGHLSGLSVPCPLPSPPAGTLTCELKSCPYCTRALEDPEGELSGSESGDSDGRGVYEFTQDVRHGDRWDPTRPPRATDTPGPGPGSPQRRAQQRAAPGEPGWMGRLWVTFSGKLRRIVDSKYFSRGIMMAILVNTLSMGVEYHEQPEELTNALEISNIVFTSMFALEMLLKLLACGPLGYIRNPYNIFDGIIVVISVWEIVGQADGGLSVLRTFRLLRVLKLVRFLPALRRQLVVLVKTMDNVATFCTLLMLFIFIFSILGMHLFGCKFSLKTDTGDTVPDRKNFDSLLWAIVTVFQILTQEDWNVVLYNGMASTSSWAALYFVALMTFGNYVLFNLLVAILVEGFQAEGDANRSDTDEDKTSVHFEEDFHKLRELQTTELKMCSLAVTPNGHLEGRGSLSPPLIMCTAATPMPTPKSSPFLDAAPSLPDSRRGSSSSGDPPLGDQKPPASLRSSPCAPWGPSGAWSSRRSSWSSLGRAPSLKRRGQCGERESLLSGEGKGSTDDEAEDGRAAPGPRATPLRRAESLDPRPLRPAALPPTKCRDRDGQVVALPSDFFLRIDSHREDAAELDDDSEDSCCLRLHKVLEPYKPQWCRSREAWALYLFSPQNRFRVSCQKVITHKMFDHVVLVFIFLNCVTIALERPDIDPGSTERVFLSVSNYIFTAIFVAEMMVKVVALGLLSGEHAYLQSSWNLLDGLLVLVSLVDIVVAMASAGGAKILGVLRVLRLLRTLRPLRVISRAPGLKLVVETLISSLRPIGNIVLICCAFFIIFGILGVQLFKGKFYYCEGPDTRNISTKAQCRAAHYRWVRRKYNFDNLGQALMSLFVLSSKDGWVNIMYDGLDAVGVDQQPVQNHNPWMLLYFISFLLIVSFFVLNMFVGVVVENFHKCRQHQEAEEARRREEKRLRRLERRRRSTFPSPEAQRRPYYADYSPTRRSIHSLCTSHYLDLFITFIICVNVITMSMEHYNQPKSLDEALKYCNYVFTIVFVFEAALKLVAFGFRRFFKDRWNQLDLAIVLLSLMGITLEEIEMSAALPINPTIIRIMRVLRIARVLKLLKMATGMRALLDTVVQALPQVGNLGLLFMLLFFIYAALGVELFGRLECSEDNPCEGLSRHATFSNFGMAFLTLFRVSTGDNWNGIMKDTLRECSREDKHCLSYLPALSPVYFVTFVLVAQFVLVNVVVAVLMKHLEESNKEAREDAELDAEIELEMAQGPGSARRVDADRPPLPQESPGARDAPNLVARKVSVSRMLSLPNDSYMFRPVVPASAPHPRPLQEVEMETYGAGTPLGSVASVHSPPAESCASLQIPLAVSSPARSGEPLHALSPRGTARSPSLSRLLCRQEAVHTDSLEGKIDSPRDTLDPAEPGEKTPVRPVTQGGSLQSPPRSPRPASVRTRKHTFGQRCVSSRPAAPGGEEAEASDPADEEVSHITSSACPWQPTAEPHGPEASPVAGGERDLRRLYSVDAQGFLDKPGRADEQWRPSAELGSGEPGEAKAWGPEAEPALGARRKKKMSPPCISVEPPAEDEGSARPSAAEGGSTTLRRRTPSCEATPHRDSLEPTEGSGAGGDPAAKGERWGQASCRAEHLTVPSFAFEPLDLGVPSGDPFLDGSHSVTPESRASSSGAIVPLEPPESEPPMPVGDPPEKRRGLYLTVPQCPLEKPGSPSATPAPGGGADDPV
Kind of assay: Calcium Influx Inhibition Assay. It counts as cell-based. Particulars: Human T-type calcium channel (Cav 3.2) expressing HEK293 cells, FLIPR Calcium 4 fluorescence. The protocol: 1. Calcium Influx Inhibition Assay
Human T-type calcium channel (Cav 3.2) expressing HEK293 cells were obtained from Prof. Edward Perez-Reyes, University of Virginia, USA. The calcium-sensitive fluorescent dye used was FLIPR Calcium 4 Assay Kit (Molecular Devices). To a black 96-well plate with a clear bottom coated with type I collagen, the human T-type calcium channel (Cav 3.2) expressing HEK293 cells were seeded and cultured overnight, and the culture medium was removed. A solution of the calcium-sensitive fluorescent dye was added, and the plate was incubated at 37° C. in an atmosphere of 5% carbon dioxide for 30 minutes. To the plate, a diluted solution of a compound was added, and the whole was further incubated at 37° C. in an atmosphere of 5% carbon dioxide for 30 minutes. While fluorescence was continuously analyzed from the bottom with a FlexStation 3 (Molecular Devices), a calcium solution was added. […] From the rise in the fluorescence from the base line, the inhibition percentage was calculated. The logarithms of compound concentrations were plotted with respect to the inhibition activities to give an IC50 value.
`O=c1nc(NC2CCC3(c4ccc(F)cc4)CC23)ncn1Cc1ccc(Cl)cc1` (stereo not shown) [compound 127]: the pIC50 is 7.52.
Take `O=c1nc(N2CC=C(c3ccc(F)cc3)CC2)ncn1Cc1ccc(OCC(F)(F)F)nn1` [compound 162]: the pIC50 was 6.22.
`Cc1nc(N2CCN(c3ccc(F)cc3)CC2)nc(=O)n1Cc1ccc(C(F)(F)F)s1` [compound 344]: the pIC50 is 7.92.
As to `Cc1nc(N2CC=C(c3ccc(F)cc3)[C@@H](O)C2)nc(=O)n1Cc1ccc(OS(=O)(=O)C(F)(F)F)cc1` [compound 213], the pIC50 was 8.47.
Take `O=c1nc(N2CCN(c3ccc(F)cc3)CC2)ncn1Cc1ccc(C(F)(F)F)s1` [compound 25]: the negative logarithm of the IC50 (pIC50) is 7.60.
`O=c1nc(N2C=CC(c3ccc(F)cc3)=CC2)ncn1Cc1ccc(C(F)(F)F)s1` [compound 484]: the negative logarithm of the IC50 (pIC50) is 6.62.
As for `O=c1nc(N2CC=C(c3ccc4ocnc4c3)CC2)ncn1Cc1ccc(C(F)(F)F)s1` [compound 295], the pIC50 is 6.74.
In the case of `Cc1csc(C2=CCN(c3nc(C)n(Cc4ccc(C(F)(F)F)s4)c(=O)n3)C[C@@H]2O)c1` [compound 362], the pIC50 is 8.82.
`O=c1nc(N2CC=C(c3ccc(F)cc3)C(O)C2)ncn1Cc1ccc(OS(=O)(=O)C(F)(F)F)nc1` (stereo not shown) [compound 189]: the pIC50 was 7.92.
Regarding `O=c1nc(N2CC=C(c3ccc(F)cc3)CC2)ncn1Cc1ccc2c(c1)OCO2` [compound 182], the pIC50 was 7.00.
The same measure for `Cc1nc(N2CC=C(c3ccc(F)cc3)[C@@H](O)C2)nc(=O)n1Cc1ccc(C(F)(F)C(F)(F)F)s1` [compound 454]: 8.72; for `Cc1nc(N2CCN(CC(=O)C34CC5CC(CC(C5)C3)C4)CC2)nc(=O)n1Cc1ccc(C(F)(F)F)s1` [compound 487]: 6.30.
Take `O=c1nc(Nc2nc(-c3ccc(F)c(F)c3)cs2)ncn1Cc1ccc(Cl)cc1` [compound 130]: the pIC50 was 7.11.
Turning to `O=c1nc(NCC2CC2c2ccc(F)cc2)ncn1Cc1ccc(C(F)(F)F)s1` (single isomer, unassigned) [compound 310], the negative logarithm of the IC50 (pIC50) is 6.77.
Turning to `C[C@@H]1CN(c2ccc(F)cc2)CCN1c1ncn(Cc2ccc(Cl)cc2)c(=O)n1` [compound 96], the pIC50 is 6.96.
Turning to `Cc1nc(N2CC=C(c3ccc(F)cc3)[C@@H](O)C2)nc(=O)n1C(C)c1ccc(C(F)(F)F)s1` (stereo partly shown) [compound 453], the pIC50 is 7.62.
On to `CN(C)Cc1nc(N2CCN(c3ccc(F)cc3)CC2)nc(=O)n1Cc1ccc(C(F)(F)F)s1` [compound 462], for which the pIC50 was 6.21.
As to `O=c1nc(N2CCN(c3ccc(F)cc3)CC2)ncn1Cc1ccc(C(F)(F)F)o1` [compound 21], the negative logarithm of the IC50 (pIC50) was 7.21.
Turning to `O=c1nc(N2CC=C(c3ccc(F)cc3)C(O)C2)ncn1Cc1cc2c(s1)CCCC2` (stereo not shown) [compound 201], the negative logarithm of the IC50 (pIC50) is 8.24.
In the case of `O=c1nc(NC[C@H]2CCCN2c2ccc(F)cc2)ncn1Cc1ccc(Cl)cc1` [compound 129], the pIC50 is 7.22.
With `O=c1nc(N2CC=C(c3cc4ccccc4o3)CC2)ncn1Cc1ccc(C(F)(F)F)s1` [compound 260], the negative logarithm of the IC50 (pIC50) is 6.85.
Regarding `O=c1nc(N2CC=C(c3ccc(F)cc3)C(O)C2)ncn1Cn1ccc(C(F)(F)F)n1` (stereo not shown) [compound 188], the negative logarithm of the IC50 (pIC50) is 7.38.
With `O=c1nc(N2CC=C(c3cc(F)cc(F)c3)CC2)ncn1Cc1ccc(C(F)(F)F)s1` [compound 285], the pIC50 was 7.25.
In the case of `Cc1nc(N2CCC(n3cc(Br)cn3)CC2)nc(=O)n1Cc1ccc(C(F)(F)F)s1` [compound 489], the pIC50 was 6.29.
`CN(C)C1CN(c2ncn(Cc3ccc(C(F)(F)F)s3)c(=O)n2)CC=C1c1ccc(F)cc1` (stereo not shown) [compound 481]: the pIC50 is 6.33.
The figure for `CCOC(=O)c1cc(C(C)(C)C)n(Cn2cnc(N3CCN(c4ccc(F)cc4)CC3)nc2=O)n1` [compound 34] is 6.28; for `CS(=O)(=O)NC1CN(c2ncn(Cc3ccc(C(F)(F)F)s3)c(=O)n2)CC=C1c1ccc(F)cc1` (stereo not shown) [compound 314] it is 7.34; for `O=c1nc(N2CC=C(c3ccc(F)c(Cl)c3)[C@@H](O)C2)ncn1Cc1cc2c(s1)CCCC2` [compound 428] it is 8.26.
The same measure for `O=c1nc(N2CC=C(c3ccc(Cl)cc3)CC2)ncn1Cc1ccc(C(F)(F)F)s1` [compound 71]: 7.62; for `O=c1nc(N2CCN(c3ccc(SC(F)(F)F)cc3)CC2)ncn1Cn1ccc(C(F)(F)F)n1` [compound 43]: 6.36; for `O=c1nc(Nc2ccn(-c3ccc(F)cc3)c2)ncn1Cc1ccc(Cl)cc1` [compound 131]: 6.70.
With `Cc1nc(N2CCN(c3ccc(F)cc3)CC2)nc(=O)n1CC12CC3CC(CC(C3)C1)C2` [compound 461], the pIC50 was 6.40.
For `COc1nc(C2=CCN(c3ncn(Cc4ccc(C(F)(F)F)s4)c(=O)n3)C[C@@H]2O)ccc1Cl` [compound 329], the pIC50 was 8.32.
The same measure for `CC(=O)NC1CN(c2ncn(Cc3ccc(C(F)(F)F)s3)c(=O)n2)CC=C1c1ccc(F)cc1` (stereo not shown) [compound 317]: 7.25; for `COc1cncc(C2=CCN(c3ncn(Cc4ccc(C(F)(F)F)s4)c(=O)n3)CC2)n1` [compound 272]: 6.46; for `CC(C)(C)c1ccc(Cn2cnc(N3CC=C(c4ccc(F)cc4)CC3)nc2=O)cc1` [compound 183]: 7.39.
Turning to `Cc1ccc(C2=CCN(c3nc(C)n(Cc4ccc(OS(=O)(=O)C(F)(F)F)nc4)c(=O)n3)C[C@@H]2O)cc1F` [compound 448], the pIC50 was 7.80.
With `O=c1nc(N2CC=C(c3ccc(F)cc3)[C@@H](O)C2)ncn1Cc1ccc(C(F)(F)F)s1` [compound 315], the negative logarithm of the IC50 (pIC50) was 9.34.
`Cc1cc(N2CCN(c3nc(C)n(Cc4ccc(C(F)(F)F)s4)c(=O)n3)CC2)cs1` [compound 357]: the negative-log IC50 (pIC50) is 7.89.
Take `O=c1nc(N2CCN(c3ccc(F)cc3)CC2)ncn1Cc1ccc(Cl)cc1` [compound 1]: the negative logarithm of the IC50 (pIC50) was 6.77.
For the compound `Cc1nc(N2CC=C(c3ccc(F)cc3)[C@@H](N)C2)nc(=O)n1Cc1ccc(C(F)(F)F)s1` [compound 348], the negative-log IC50 (pIC50) was 8.35.
Take `Cc1nc(N2CC3CCC(C2)N3c2ccc(F)cc2)nc(=O)n1Cc1ccc(C(F)(F)F)s1` [compound 380]: the pIC50 was 6.51.
For the compound `O=c1nc(N2CC=C(c3ccc(F)cc3)[C@@H](O)C2)ncn1Cc1ccc(OS(=O)(=O)C(F)(F)F)cc1` [compound 211], the pIC50 was 8.70.
Consider `Cc1nc(N2CC=C(c3ccc(F)cc3)[C@@H](O)C2)nc(=O)n1Cc1ccc(C(F)(F)F)s1` [compound 342], for which the pIC50 is 9.03.
As for `CCCc1nc(N2CC=C(c3ccc(F)cc3)CC2)nc(=O)n1Cc1ccc(C(F)(F)F)s1` [compound 460], the negative-log IC50 (pIC50) was 7.21.
On to `O=c1nc(N2CCN(c3ccc(F)cc3)CC2)ncn1Cc1ccc(C(F)(F)F)cc1` [compound 3], for which the pIC50 was 7.00.
As for `O=c1nc(N2CC=C(c3ccc(F)cc3)CC2)ncn1Cc1ccc(OCC(F)(F)F)cc1` [compound 468], the pIC50 is 7.17.
The figure for `O=c1nc(N[C@@H]2CCN(c3ccc(F)cc3)C2)ncn1Cc1ccc(C(F)(F)F)s1` [compound 224] is 7.24; for `O=c1nc(N2CC=C(c3ccc(F)cc3)CC2)ncn1Cc1ccc2oc(C(F)(F)F)cc2c1` [compound 184] it is 7.37; for `O=c1nc(N2CCN(c3ccc(F)cc3)CC2)ncn1Cc1ccc(OCC(F)(F)F)nc1` [compound 144] it is 7.02.
Turning to `O=c1nc(N2CCC(c3ccc(F)cc3)C(F)(F)C2)ncn1Cc1ccc(Cl)cc1` (stereo not shown) [466b], the negative logarithm of the IC50 (pIC50) was 6.24.
The same measure for `O=c1cc(C(F)(F)F)ccn1Cn1cnc(N2CCN(c3ccc(F)cc3)CC2)nc1=O` [compound 16]: 6.24; for `O=c1nc(N2CC=C(c3ccc(F)cc3)[C@H](O)C2)ncn1Cc1ccc(C(F)(F)F)s1` [compound 316]: 8.64.
With `CCCCCCOc1ccc(Cn2cnc(N3CCN(c4ccc(F)cc4)CC3)nc2=O)cc1` [compound 140], the pIC50 was 7.26.
The figure for `Cc1ccc(C2=CCN(c3nc(C)n(Cc4ccc(Br)s4)c(=O)n3)C[C@@H]2O)cc1F` [compound 392] is 8.89.
As for `COc1nc(N2CCN(c3ccc(F)cc3)CC2)nc(=O)n1Cc1ccc(Cl)cc1` [compound 31], the pIC50 was 6.64.
Turning to `COC1CN(c2ncn(Cc3ccc(C(F)(F)F)s3)c(=O)n2)CC=C1c1ccc(F)cc1` (stereo not shown) [compound 475], the pIC50 is 7.41.
For `O=c1nc(N2CCN(c3ccc(F)cc3)CC2)ncn1Cc1csc(C(F)(F)F)n1` [compound 29], the pIC50 was 6.49.
As for `Cc1nc(N2CC=C(c3ccc(F)cc3)C(CO)C2)nc(=O)n1Cc1ccc(C(F)(F)F)s1` (stereo not shown) [compound 379], the negative logarithm of the IC50 (pIC50) is 7.27.
Consider `CC1CC(F)(c2ccc(F)cc2)CCN1c1ncn(Cc2ccc(Cl)cc2)c(=O)n1` (stereo not shown) [compound 134], for which the pIC50 is 6.49.
As to `O=c1nc(N2CC=C(c3ccc(Cl)cn3)CC2)ncn1Cc1ccc(C(F)(F)F)s1` [compound 256], the pIC50 is 7.38.
With `CC(F)(F)c1ccc(Cn2cnc(N3CC=C(c4ccc(F)cc4)[C@@H](O)C3)nc2=O)s1` [compound 207], the pIC50 was 8.12.
Consider `Cc1nc(N[C@H]2C[C@@H](c3ccc(F)cc3)C2)nc(=O)n1Cc1ccc(C(F)(F)F)s1` [compound 360], for which the pIC50 is 7.08.
The same measure for `N#Cc1ccc(N2CCN(c3ncn(Cn4ccc(C(F)(F)F)n4)c(=O)n3)CC2)cc1` [compound 49]: 6.07.
